Measurements as given in the supplement of paper PMC13380429.

Experiments:
Settings in all cases: 72 h
[1] = system: Calu-3; assay: cell viability relative to DMSO; higher = less toxic
[2] = system: HepG2; assay: as above
[3] = system: Caco-2; assay: as above
[4] = system: Vero E6; assay: as above
[5] = system: Calu-3; assay: relative viability EC50 (midpoint between 100% and the lowest measured viability); higher = less toxic
[6] = system: HepG2; assay: as above
[7] = system: Caco-2; assay: as above
[8] = system: Vero E6; assay: as above
[9] = system: Calu-3; assay: drug sensitivity score (DSS) for viability; higher = more toxic; extreme values may be limits of the assay
[10] = system: HepG2; assay: as above
[11] = system: Caco-2; assay: as above
[12] = system: Vero E6; assay: as above
[13] = system: U2OS; assay: cell viability relative to DMSO; higher = less toxic
[14] = system: U2OS; assay: relative viability EC50 (midpoint between 100% and the lowest measured viability); higher = less toxic
[15] = system: U2OS; assay: drug sensitivity score (DSS) for viability; higher = more toxic; extreme values may be limits of the assay

SMILES	cell viability ([1]; 1 nM) [%]	cell viability ([1]; 10 nM) [%]	cell viability ([1]; 100 nM) [%]	cell viability ([1]; 1000 nM) [%]	cell viability ([1]; 10000 nM) [%]	cell viability ([2]; 1 nM) [%]	cell viability ([2]; 10 nM) [%]	cell viability ([2]; 100 nM) [%]	cell viability ([2]; 1000 nM) [%]	cell viability ([2]; 10000 nM) [%]	cell viability ([3]; 1 nM) [%]	cell viability ([3]; 10 nM) [%]	cell viability ([3]; 100 nM) [%]	cell viability ([3]; 1000 nM) [%]	cell viability ([3]; 10000 nM) [%]	cell viability ([4]; 1 nM) [%]	cell viability ([4]; 10 nM) [%]	cell viability ([4]; 100 nM) [%]	cell viability ([4]; 1000 nM) [%]	cell viability ([4]; 10000 nM) [%]	relative viability EC50 [5] [µM]	relative viability EC50 [6] [µM]	relative viability EC50 [7] [µM]	relative viability EC50 [8] [µM]	drug sensitivity score [9]	drug sensitivity score [10]	drug sensitivity score [11]	drug sensitivity score [12]	cell viability ([13]; 1 nM) [%]	cell viability ([13]; 10 nM) [%]	cell viability ([13]; 100 nM) [%]	cell viability ([13]; 1000 nM) [%]	cell viability ([13]; 10000 nM) [%]	relative viability EC50 [14] [µM]	drug sensitivity score [15]
CC(C)(C)C(=O)C(Oc1ccc(Cl)cc1)n1ccnc1 (centres undefined) [climbazole]	94.5	102	98.3	94.7	101	113	104	93.8	107	102	108	100	104	97	98.2	96.6	101	98.1	92.2	97.1	> 10	> 10	> 10	> 10	0	0	0	0	–	–	–	–	–	–	–
O=C(O)c1cc(Oc2ccc([N+](=O)[O-])cc2)cc(Oc2ccc([N+](=O)[O-])cc2)c1 [compound-w]	107	104	105	96.9	94.6	106	98.9	102	104	108	–	–	–	–	–	–	–	–	–	–	> 10	> 10	–	–	0	0	–	–	–	–	–	–	–	–	–
O=C1CN(/N=C/c2ccc(-c3ccc([N+](=O)[O-])cc3)o2)C(=O)N1 [dantrolene]	102	95	106	102	112	102	101	95.6	101	107	110	97.1	91.7	97.8	89.7	–	–	–	–	–	> 10	> 10	> 10	–	0	0	0	–	96.8	101	96.1	103	95.6	> 10	0
OC(CCCN1CCCCC1)(c1ccccc1)c1ccccc1 [diphenidol]	120	104	97.8	106	98.6	96.1	101	102	109	105	90.3	93.3	90.5	102	87.8	–	–	–	–	–	> 10	> 10	> 10	–	0	0	0	–	104	98.9	103	99.5	100	> 10	0
CCOc1c(N2CCOCC2)cnn(C)c1=O [emorfazone]	–	–	–	–	–	106	109	97.2	118	108	99.1	119	112	127	108	95.3	93.6	98.3	96.2	99.4	–	> 10	> 10	> 10	–	0	0	0	96.4	93.1	93.8	96.1	104	> 10	0
COc1cc(OC)cc(N(CCNC(C)C)c2ccc3ncc(-c4cnn(C)c4)nc3c2)c1 [erdafitinib]	109	90.2	92.3	89.6	81.4	101	111	104	99.4	39.2	90.1	99.3	94	99.3	65.2	94	99	92	98.9	35.9	> 10	3.09	–	3.04	1.3	3.4	1.7	3.6	101	97.3	91.5	84	53.1	–	4.1
CCOC(=O)c1cncn1[C@H](C)c1ccccc1 [etomidate]	94.2	111	97.1	102	100	95	86.3	97.3	100	91.7	–	–	–	–	–	102	96.4	104	89.1	106	> 10	> 10	–	> 10	0	0	–	0	91.8	99.2	94.4	97.2	102	> 10	0
COc1c(N2CCNC(C)C2)c(F)cc2c(=O)c(C(=O)O)cn(C3CC3)c12 (centres undefined) [gatifloxacin]	101	114	103	103	89.4	99.1	101	95.9	98.7	100	95.7	99.9	97.6	100	96.8	–	–	–	–	–	> 10	> 10	> 10	–	0	0	0	–	102	98.5	94.7	95.2	93	> 10	0
CN(C)c1ccc2c(c1)Sc1cc(N(C)C)ccc1N2 [leucomethylene-blue]	101	102	102	109	9	93.1	93.2	93.6	76.4	7.7	95.2	99	102	94.1	23.1	95.8	97.1	93.9	85.2	45.9	3.65	1.53	2.54	1.55	4.4	8.7	5.2	4.9	99.5	94.1	97.2	99.6	56.9	–	2.2
CN(C)C(=N)NC(=N)N [metformin]	103	103	85.6	101	89.1	93.4	96.7	97.2	94.3	93	106	95.7	90.2	104	109	93.6	102	103	103	102	> 10	> 10	> 10	> 10	0	0	0	0	–	–	–	–	–	–	–
C[C@@H]1C/C=C/C=C/C=C/C=C/[C@H](O[C@@H]2O[C@H](C)[C@@H](O)[C@H](N)[C@@H]2O)C[C@@H]2O[C@](O)(C[C@@H](O)C[C@H]3O[C@@H]3/C=C/C(=O)O1)C[C@H](O)[C@H]2C(=O)O [natamycin]	–	–	–	–	–	89.7	91.6	92.5	93.3	94.8	90.9	103	95.3	97.1	107	95.7	96.6	93.3	88.7	105	–	> 10	> 10	> 10	–	0	0	0	95.9	97.5	94.3	102	108	> 10	0
Nc1nc2ccc(OC(F)(F)F)cc2s1 [riluzole]	96	100	109	97.5	103	97.9	106	96.6	94.7	105	97.4	90.4	91.7	103	96.9	93.4	98.1	98.7	99.5	104	> 10	> 10	> 10	> 10	0	0	0	0	–	–	–	–	–	–	–
CC1(C)CN(C(=O)c2ccc(-c3cccc4nc(NC(=O)C5CC5)nn34)cc2)C1 [solcitinib]	106	94.5	102	101	92.2	105	112	99.6	98.4	96.6	99.1	99.8	92.9	87.3	81.7	–	–	–	–	–	> 10	> 10	> 10	–	0	0	1.5	–	101	97.3	101	97.2	96.8	> 10	0
O=C(O)COc1cccc(CN(Cc2ccc(-n3cccn3)cc2)S(=O)(=O)c2cccnc2)c1 [taprenepag]	109	95.6	94.5	92.9	91.7	92.5	104	93.8	104	96.4	104	102	99.2	109	93.9	105	97.2	97.5	102	104	> 10	> 10	> 10	> 10	0	0	0	0	–	–	–	–	–	–	–
CC(=O)Nc1ccc(NC(=S)NC(=O)c2ccc(C(C)(C)C)cc2)cc1 [tenovin-1]	108	95.1	95.8	90.9	77.2	113	89.6	104	56.8	42.4	94.7	91.4	106	100	88.7	99.9	98.8	105	67.8	61.7	> 10	0.65	> 10	–	1.3	8.2	0	5.6	95.6	96.8	96.2	103	98.3	> 10	0
CN1c2ccccc2C(NCCCCCCC(=O)O)c2ccc(Cl)cc2S1(=O)=O (centres undefined) [tianeptine]	100	103	92.4	102	102	100	108	96.2	108	98.6	103	92.7	107	94.8	92.8	104	102	101	94.1	88.1	> 10	> 10	> 10	> 10	0	0	0	0.3	–	–	–	–	–	–	–
N=C(N)NCCC[C@H](NC(=O)[C@@H]1CCCN1C(=O)[C@@H]1CSSC[C@H](N)C(=O)N[C@@H](Cc2ccc(O)cc2)C(=O)N[C@@H](Cc2ccccc2)C(=O)N[C@@H](CCC(N)=O)C(=O)N[C@@H](CC(N)=O)C(=O)N1)C(=O)NCC(N)=O [vasopressin]	–	–	–	–	–	101	98	86.3	92.3	99.5	94.8	93	88	87.5	99.2	101	99.1	98.1	94	99.1	–	> 10	> 10	> 10	–	0	0	0	102	97.2	99.8	97.8	98	> 10	0
